Data taken from patent US20090226427A1, “NOVEL PHARMACEUTICAL COMPOSITIONS FOR MODULATING ANGIOGENESIS” (priority 1999, published 2009).

What was measured:
endothelial cells = experiment: sandwich Matrigel model of endothelial tube formation; format: cell-based
Procedure: Indeed, while endothelial cells culture leads to pavimentous organization when plated on dishes (FIG. 1A), endothelial cells progressively form tubes when cultured within gels of collagen, fibrin or Matrigel®. Accordingly, in the “3-D model”, endothelial cells are mixed to the matrix before gelification and tube-like structures are obtained after 48-72 hours (FIG. 1B); this model, however, reduces the efficiency of transfection. In the “sandwich model”, cells are first cultured to confluence on a first layer of matrix, and are then covered by a second matrix layer; cells are easily transfected in the interval preceding the addition of the upper layer. The latter technique allows the formation of endothelial tubes in 3-6 hours; the tube structures are mature 12 hours after induction (FIG. 1C) and then start to regress.
Of note, when endothelial cells were transfected with an irrelevant construct (β-galactosidase-encoding), no change in the rate and extent of tube formation was observed.

eNOS = experiment: nitrite (NO2-) detection, VEGF-stimulated EC; format: cell-based, human
Procedure: Nitrite was Detected as follows: Quantitative analysis of nitrite (NO2^−) was used as an index of NO production. Briefly, aliquots of the medium bathing intact EC were collected at the time intervals corresponding to either 0-2 or 5-30 min of VEGF exposure. For the latter period, the medium bathing the VEGF-stimulated cells for the first 5 min was discarded and replaced by fresh VEGF-containing medium for the next 25 min. […] Data are normalized for the amount of protein in the dish, and are presented for convenience as mean+/−S.E. Statistical analyses were made using Student's t test or one-way ANOVA where appropriate.

CaM/eNOS interaction = experiment: CaM/eNOS co-immunoprecipitation, EC; format: cell-based, human
Procedure: (§1) Immunoprecipitation, Immunoblotting, and Kinase Assay was performed as follows: EC were homogenized in a buffer containing phosphatase and protease inhibitors (Garcia-Cardena, G., et al. (1998) Nature 392, 821-824), and processed for immunoblotting or immunoprecipitation in a octyl glucoside-containing buffer as described previously (Feron, O., et al. (1998) J. Biol. Chem. 273, 3125-3128). Caveolin, eNOS, and hsp90 antibodies were from BD Transduction Labs, Akt and phospho-Akt antibodies from BD PharMingen, CaM antibody from Santa Cruz, and phospho-eNOS antibody from NEB Cell Signaling Technology. Akt activity was measured using a non-radioactive immunoprecipitation kinase assay kit (NEB Cell Signaling Technology).
In order to further dissect the calcium dependence of the Akt-mediated phosphorylation of eNOS, the eNOS/CaM association was examined after 2 and 30 min VEGF exposure, i.e. at the maximum of the calcium transient and after the return of [Ca^2+]i to its basal level, respectively.

caveolin-eNOS complex = experiment: caveolin/eNOS co-immunoprecipitation, VEGF-exposed HUVEC; format: cell-based, human; settings: for effect on VEGF-induced caveolin/eNOS dissociation: geldanamycin, BAPTA
Procedure: as §1, with “(1998) J. Biol. Chem. 273, 30249-30254) and plated at 5×10^5 cells/ml. […] Immunoprecipitation,” for “Immunoprecipitation,”, “(Garcia-[…].,” for “(Garcia-Cardena, G.,”, “Technology). […] First, extracts were immunoprecipitated with caveolin antibodies and the immuno-precipitation immunoblotted with eNOS antibodies (FIG. 10A, top). […] Experiments were then performed to determine the time course of hsp90 interaction with eNOS.” for “Technology).”

hsp90/eNOS interaction = experiment: hsp90/eNOS co-immunoprecipitation, VEGF-exposed HUVEC; format: cell-based, human
phospho-Ser1177-eNOS [1] = experiment: phospho-Ser1177-eNOS immunoblot, VEGF-exposed HUVEC; format: cell-based, human
phospho-Ser473-Akt [2] = experiment: phospho-Ser473-Akt immunoblot, VEGF-exposed HUVEC; format: cell-based, human
Akt/eNOS interaction = experiment: Akt/eNOS co-immunoprecipitation, VEGF-exposed HUVEC; format: cell-based, human
Procedure: Immunoprecipitation, Immunoblotting, and Kinase Assay was performed as follows: EC were homogenized in a buffer containing phosphatase and protease inhibitors (Garcia-[…] ., et al. (1998) Nature 392, 821-824), and processed for immunoblotting or immunoprecipitation in a octyl glucoside-containing buffer as described previously (Feron, O., et al. (1998) J. Biol. Chem. 273, 3125-3128). Caveolin, eNOS, and hsp90 antibodies were from BD Transduction Labs, Akt and phospho-Akt antibodies from BD PharMingen, CaM antibody from Santa Cruz, and phospho-eNOS antibody from NEB Cell Signaling Technology. Akt activity was measured using a non-radioactive immunoprecipitation kinase assay kit (NEB Cell Signaling Technology). It was further analyzed whether eNOS and Akt interact together in eNOS/Akt co-immunoprecipitation experiments. […] In an attempt to appreciate the proportion of eNOS involved in the geldanamycin-sensitive recruitment of Akt, the reverse co-immunoprecipitation assay was further developed: hsp90 and Akt antibodies were used to immunoprecipitate eNOS (which was detected by immunoblotting) and the supernatants of these immunoprecipitations were checked for residual eNOS presence; for this purpose, the immunoprecipitated supernatants were submitted to a second immunoprecipitation with eNOS antibodies.

[Ca^2+]i = Fura-2 measurement of [Ca2+]i in VEGF-exposed EC; format: cell-based, human
Procedure: Alternating wavelength excitation of 340 and 380 nm was provided by a motorized filter wheel. The image pairs monitored by the Ionoptix Myocam camera were processed by the IonWizard software (Ionoptix, Milton, Mass.) and are presented as the fluorescence ratio (340/380 nm), a direct index to the [Ca^2+]i. In some experiments, Fura-2-loaded cells were preincubated with the intracellular calcium chelator BAPTA/AM (20 μM).

phospho-Ser473-Akt [3] = experiment: phospho-Ser473-Akt immunoblot, statin-exposed HUVECs; settings: for (basal) level of Akt phosphorylation: phosphatase inhibitor
phospho-Ser1177-eNOS [4] = experiment: phospho-Ser1177-eNOS immunoblot, statin-exposed HUVECs
eNOS/hsp90 interaction = experiment: eNOS/hsp90 co-immunoprecipitation, statin-exposed HUVECs; settings: mevalonate 1 mmol/L, BAPTA-AM 20 μmol/L, CSD peptide loading
CMECs = experiment: angiogenesis assay on Matrigel, CMECs; format: cell-based, Mouse; settings: CMECs; L-NAME 5 mmol/L coincubation; geldanamycin 1 μg/mL 30-minute preincubation
Procedure: (§2) Tube formation was observed using an inverted phase-contrast microscope (Zeiss Axiovert 25), and images were captured with a videographic system (Pixera Pro). The tube formation index was determined by measuring the length of tubes in random fields from each well using the Image J program. Statistical analyses were made using the Student t test or one-way ANOVA where appropriate.

AoECs = experiment: aortic ring culture in Matrigel, AoEC network organization; format: cell-based, rat; settings: L-NAME added at the time of serum deprivation
Procedure: Cultures of AoECs and CoMECs organized in a network were then challenged at day 5 by incubation under serum-free conditions for 24 to 48 hours with or without some of the drugs mentioned above. […] Tube formation was observed using an inverted phase-contrast microscope (Zeiss Axiovert 25), and images were captured with a videographic system (Pixera Pro). The tube formation index was determined by measuring the length of tubes in random fields from each well using the Image J program. Statistical analyses were made using the Student t test or one-way ANOVA where appropriate.

wild-type eNOS = experiment: nitrite production in transfected COS cells, wild-type eNOS; format: cell-based
HUVECs = experiment: angiogenesis assay on Matrigel, HUVECs; format: cell-based, human; settings: HUVECs on Matrigel, atorvastatin
Procedure: as §2
Transfection and peptide loading was performed by reversible permeabilization: HUVECs were transfected with the hsp90 cDNA (a gift from Dr W. C. Sessa, Yale University, New Haven, Conn.) using Lipofectamine (Invitrogen) according to the manufacturer's protocol; an irrelevant plasmid encoding β-galactosidase was used as a control to obtain identical amounts of transfected DNA in each condition. HUVECs were also reversibly permeabilized, as previously reported (Feron et al. J Biol. Chem. 1998; 273:30249-30254), to introduce synthetic peptides derived from the caveolin scaffolding domain (CSD).

[5] = system: phospho-Akt/eNOS interaction; experiment: eNOS/phospho-Akt co-immunoprecipitation, statin-exposed HUVECs; settings: co-IP
[6] = eNOS antibodies, geldanamycin 1 μg/ml 30 min, BAPTA
[7] = nitrite production normalized per min

In the case of CC(=O)N[C@@H](C(=O)O)C(C)(C)SN=O (racemic) [SNAP], the “effect on the anti-angiogenic effect observed in caveolin-overexpressing cells” value (endothelial cells; caveolin-overexpressing cells) is reported as “correct this anti-angiogenic effect” and the endothelial tube formation (endothelial cells; non-transfected cells) is reported as “accelerated the endothelial tube formation”.
For CNc1ccc2oc(C[C@H]3O[C@@]4(CC[C@H]3C)O[C@H]([C@H](C)C(=O)c3ccc[nH]3)[C@H](C)C[C@H]4C)nc2c1C(=O)O [A23187], the “early NO2^− production (0-2 min) relative to the level obtained with VEGF” value (eNOS; 1 μM A23187 pulse for 2 min) was about 3 fold, the “long-term NO2^− production compared with VEGF-exposed cells” value (eNOS; 1 μM A23187 pulse for 2 min, then Ca^2+-free medium) was “significantly lower” and the eNOS/CaM association (CaM/eNOS interaction; short exposure to A23187) was “led to the early association between eNOS and CaM”.
CC(=O)OCOC(=O)CN(CC(=O)OCOC(C)=O)c1ccccc1OCCOc1ccccc1N(CC(=O)OCOC(C)=O)CC(=O)OCOC(C)=O [BAPTA-AM] was tested, and the “effect on VEGF-induced caveolin/eNOS dissociation” value (caveolin-eNOS complex) was “complete inhibition”, the “effect on VEGF-induced hsp90/eNOS co-immunoprecipitation” value (hsp90/eNOS interaction; [6]) was “completely prevented” and the “effect on VEGF-induced eNOS phosphorylation” value (phospho-Ser1177-eNOS [1]; LY294002 10 μM 1-h preincubation, geldanamycin 1 μg/ml, BAPTA-AM 20 μM) was “prevented”. The “effect on VEGF-induced Akt phosphorylation” value (phospho-Ser473-Akt [2]; LY294002 10 μM 1-h preincubation, geldanamycin 1 μg/ml, BAPTA) was “not altered”, the “effect on VEGF-induced Akt/eNOS co-immunoprecipitation” value (Akt/eNOS interaction; [6]) was “prevented” and the “effect on VEGF-evoked calcium transient” value ([Ca^2+]i; 20 μM BAPTA-AM) was “completely abrogated”. For the same compound, the “effect on the basal level of [Ca^2+]i” value ([Ca^2+]i; 20 μM BAPTA-AM) was “no effect”, the “level of eNOS activation for the 5-30-min period” value (eNOS; BAPTA added after the early phase (at t=5 min), versus vehicle) was “no significant reduction” and the “effect on early VEGF-induced eNOS activation (0-2 min)” value (eNOS; [7]) was “sufficient to block”. The “effect on late VEGF-induced eNOS activation (5-30 min)” value (eNOS; [7]) was “sufficient to block”, the “effect on VEGF-induced CaM/eNOS interaction” value (CaM/eNOS interaction; BAPTA pretreatment) was “completely abrogated” and the “effect on statin-induced phosphorylation of Akt” value (phospho-Ser473-Akt [3]; CSD peptide loading, BAPTA-AM added 30 minutes before statin) was “blocked”. For the same compound, the “effect on statin-induced phosphorylation of eNOS” value (phospho-Ser1177-eNOS [4]; atorvastatin 1 μmol/L, LY294002 10 μmol/L, geldanamycin 1 μg/mL, mevalonate 1 mmol/L, BAPTA-AM 20 μmol/L, CSD peptide loading) was “abrogated” and the “effect on atorvastatin-stimulated eNOS/hsp90 interaction” value (eNOS/hsp90 interaction) was “abrogated”.
With COC(=O)[C@@H](N)CCCNC(=N)N[N+](=O)[O-] [L-NAME, N^G-nitro-L-arginine methyl ester] the “effect on atorvastatin-induced tube formation” value (CMECs) was “almost completely blocked” and the “effect on statin stabilisation of the network” value (AoECs) was “abrogated the beneficial effects of statin pretreatment”.
With COC1=C2C[C@@H](C)C[C@H](OC)[C@H](O)[C@@H](C)/C=C(\C)[C@H](OC(N)=O)[C@@H](OC)/C=C\C=C(/C)C(=O)NC(=CC1=O)C2=O [geldanamycin] the “effect on VEGF-induced caveolin/eNOS dissociation” value (caveolin-eNOS complex) was “no significant effect”, the “effect on early VEGF-induced eNOS activation (0-2 min)” value (eNOS; [7]) was “no significant effect” and the “part of the recombinant hsp90- and hsp90/Akt-mediated increase in NO production blocked” value (wild-type eNOS; COS cells, preincubation) was 70-95%. For the same compound, the “part of the Akt-dependent increase in nitrite production blocked” value (wild-type eNOS; WT-eNOS COS cells pretreated for 30 min) was “around 70%”.
With C=C1[C@@H](O)[C@@H]2O[C@]3(CC[C@H](/C=C/[C@@H](C)[C@@H]4CC(C)=C[C@@]5(O[C@H](C[C@@](C)(O)C(=O)O)CC[C@H]5O)O4)O3)CC[C@H]2O[C@@H]1[C@@H](O)C[C@H](C)[C@H]1O[C@@]2(CCCCO2)CC[C@H]1C [okadaic acid] the “effect on statin-induced tube formation” value (HUVECs) was “stimulated basal and statin-induced tube formation”, the “(basal) level of Akt phosphorylation” value (phospho-Ser473-Akt [3]) was “dramatically increased” and the “increase of statin-induced phosphorylation of eNOS in the presence of okadaic acid” value (phospho-Ser1177-eNOS [4]; okadaic acid versus okadaic acid+statin, 100 nmol/L) was about 3 fold. For the same compound, the “effect on phospho-Akt/eNOS interaction upon statin” value [5] was “promoted”.
For VEGF, the “time to complete dissociation of eNOS from caveolin” value (caveolin-eNOS complex; VEGF 50 ng/ml) was at most 2 min, the “time for which dissociation was maintained” value (caveolin-eNOS complex; in the presence of VEGF) was “at least 30 min” and the “proportion of eNOS pool engaged in hsp90 interaction” value (hsp90/eNOS interaction; 5 min VEGF, reverse immunoprecipitation with hsp90 antibodies) was “around half of the total eNOS pool”. For the same compound, the “cell exposure needed for hsp90 co-immunoprecipitation with eNOS” value (hsp90/eNOS interaction; VEGF 50 ng/ml) was at least 2 min, the “time to maximal eNOS phosphorylation” value (phospho-Ser1177-eNOS [1]; VEGF exposure) was “at least 5 min” and the “time at which Akt phosphorylation was already observed” value (phospho-Ser473-Akt [2]; VEGF exposure) was 30 s. The “proportion of eNOS pool engaged in Akt interaction” value (Akt/eNOS interaction; 5 min VEGF, reverse immunoprecipitation with Akt antibodies) was “around half of the total eNOS pool”, the “time from which Akt association to eNOS could be detected” value (Akt/eNOS interaction; VEGF stimulation) was at least 2 min and the “time to peak of calcium transient” value ([Ca^2+]i; VEGF exposure) was 1 min. The “rate of NO2- produced in the first 5-min interval versus the following 30 min” value (eNOS; after VEGF stimulation, preliminary experiments) was 2-3 fold, the “absolute amount of NO2^− produced in the 5-30-min period versus the first 2-min VEGF exposure” value (eNOS; control conditions) was 5.5 fold and the “amounts of NO2^− in the 55-60-min interval” value (eNOS; following VEGF stimulation) was “below the detection level”. The “persistence of the CaM/eNOS association” value (CaM/eNOS interaction; VEGF) was “at least 30 min” and the “time at which CaM could be detected in the eNOS immune complex” value (CaM/eNOS interaction; after VEGF stimulation) was 2 min.
With calyculin the “(basal) level of Akt phosphorylation” value (phospho-Ser473-Akt [3]) was “stimulated Akt phosphorylation”.
